Laboratory results published in patent publication US20250205230A1 (priority 2022, published 2025).
≈ marks a conversion by molar mass, not a printed value. Read-outs that look alike come from different tables or passages of the source.

Key:
Lipophilicity (logD7.4) = conditions: for logD: pH 7.4
PERK [1] = assay type: cell-based; conditions: for increase in eIF2α phosphorylation: 20 μM, 0.1 MOI, lysed 24 h; for eIF2α phosphorylation (eIF2α-P relative to total eIF2α), in words: HEK293 infected at 0.1 MOI, 10 or 20 μM, lysed 24 hours post-infection
VSVΔ51M [2] = assay type: cell-based, vesicular stomatitis Indiana virus (VSV); conditions: 10 μM
VSVΔ51M [3] = assay type: cell-based, vesicular stomatitis Indiana virus (VSV)
[4] = test system: TGEV (an alpha-coronavirus); conditions: cited from earlier work
PERK [5] = experiment: eIF2α phosphorylation in non-infected HEK293 cells; assay type: cell-based; conditions: lysed 24 hours post-treatment
[6] = test system: asialoglycoprotein receptor H2b; experiment: Oligosaccharide maturation of H2b in transfected HEK293 cells (western blot); assay type: cell-based; conditions: Endo H
ACE2 = experiment: Oligosaccharide maturation of ACE2 in transfected HEK293 cells (western blot); assay type: cell-based; conditions: Endo H or N-glycanase
SARS-CoV-2 = assay type: cell-based
[7] = treatment began at the start of the infection

SMILES | lipophilicity, in words (Lipophilicity (logD7.4); compared with MK-28) | logD (Lipophilicity (logD7.4)) | increase in eIF2α phosphorylation (PERK [1]; [7]) | eIF2α phosphorylation (eIF2α-P relative to total eIF2α), in words (PERK [1]) | solubility (Solubility) [µM] | solubility compared to MK-28 (Solubility; ratio GLB7 vs MK-28) | inhibition of replication, comparison between compounds (VSVΔ51M [2]) | reduction of titer of infectious virions (VSVΔ51M [2]) | infectivity (VSV-G level), in words (VSVΔ51M [3]) | decrease in infectivity (VSV-G relative to actin) (VSVΔ51M [3]; 20 μM) | expression of TGEV viral proteins and viral titers [4] | increase in eIF2α phosphorylation (PERK [5]; 10 μM) | increase in eIF2α phosphorylation (PERK [5]; 20 μM) | effect on maturation of H2b [6] | increase in eIF2α phosphorylation (PERK [1]; treatment began 3 hours after the start of the infection) | effect on maturation of ACE2 (ACE2) | reduction of SARS-CoV-2 replication (titer of infectious virions) (SARS-CoV-2)
Oc1ccc(C=NNc2nc(-c3ccccc3)cc(-c3ccccc3)n2)cc1O (racemic) [GLB7, 4-((2-(4,6-diphenylpyrimidin-2-yl)hydrazono)methyl)benzene-1,2-diol] | decreased lipophilicity | 3.6 | about 1.5 fold | strong increase | 16 (≈ 6.12 µg/mL) | more than 10 fold | greater inhibition than MK-28 | several orders of magnitude | major decrease in infectivity | about 3 fold | – | – | – | – | – | – | –
O=C(COc1ccc(Cl)cc1)NC1CCC(NC(=O)COc2ccc(Cl)cc2)CC1 (centres unmarked) [ISRIB] | – | – | – | – | – | – | – | – | – | – | increased | – | – | – | – | – | –
CN(N=Cc1ccc(O)c(O)c1)c1nc(-c2ccccc2)cc(-c2ccccc2)n1 [MK-28, 4-((2-(4,6-diphenylpyrimidin-2-yl)-2-methylhydrazineylidene)methyl) benzene-1,2-diol] | – | 4.5 | about 5 fold | strong increase | 1.4 (≈ 0.555 µg/mL) | – | greater inhibition of replication than did GLB7 | several orders of magnitude | – | – | – | about 1.4 fold | about 1.1 fold | no effect | about 4 fold | no effect | 10- to 100 fold
